Source: patent US7015209B2, “Hair-growing agent” (Kyowa Hakko Kogyo Co., Ltd., priority 1999, dated 2006)
Where two headings read alike, the source gives them in different places.

Key:
protein kinase A (PKA) = protein kinase A (PKA) (Bos taurus, UniProt P00517); experiment: Measurement of PKA-inhibiting activity (PKA-IC50); type: biochemical; conditions: crude enzyme partially purified from calf heart
From the text: (2) Method for Measuring PKA-Inhibiting Activity

protein kinase C (PKC) = experiment: Measurement of PKC-inhibiting activity (PKC-IC50); conditions: for IC50: read-out: PKC-IC50, crude enzyme partially purified from rat brain
Procedure: (1) Method for Measuring PKC-Inhibiting Activity
Measurement of PKC-inhibiting activity can be carried out in a manner similar to the method of Kikkawa, et al. [Journal of Biological Chemistry, 257, 13341 (1982)].
To 250 μl of an aqueous solution comprising 2.5 μmol of magnesium acetate, 50 μg of histone Type IIIS (Sigma Chemical Co., Ltd.), 20 μg of phosphatidylserine, 0.8 μg. of diolein, 25 nmol of calcium chloride, 5 μg of a crude enzyme (partially purified from rat brain by the method of Kikkawa, et al.) and 5 μmol of Tris-HCl buffer (pH 7.5) is added the above aqueous solution containing a test compound (10 μl), followed by incubation at 30° C. for 3 minutes. After the incubation, 1.25 nmol of [γ-^32P]ATP (5–10×10^3 cpm/nmol) is added thereto, followed by phosphorylation reaction at 30° C. for 3 minutes. The reaction is terminated by addition of 25% trichloroacetic acid and the reaction mixture is filtered through a cellulose acetate membrane (pore size: 0.45 μm, Toyo Filter Co., Ltd.) After the membrane is washed four times with 5% trichloroacetic acid, the radioactivity remaining on the membrane is measured as a test compound value. Separately, the above procedure is carried out in the same manner without addition of the test compound and the radioactivity is measured as a control value.
The molar concentration of the test compound giving a test compound value which is 50% of the control value is regarded as the 50% PKC inhibition constant (PKC-IC50).

[1] = test system: mouse hair follicle epithelial cells; experiment: Cell growth-promoting effect on cultured mouse hair follicle epithelial cells (MTT); type: cell-based
Procedure: Hair follicle epithelial cells were separated and cultured according to a modification of the method of Tanigaki, et al. [Archives of Dermatological Research, 284, 290–296 (1992)].
The skin on the back of a 4-days-old C3H mouse (Charles River Japan, Inc.) was cut off and treated with MEM (Eagle's Minimum Essential Medium) containing 500 units/ml Dispase (Godo Shusei Co., Ltd.) and 5% fetal calf serum (FCS) at 4° C. for 16 hours.
Then, the epidermis was stripped from the skin section, and the obtained dermis layer was treated with DMEM (Dulbecco's modified Eagle Medium) containing 0.25% Collagenase N-2 (Nitta Gelatin Co., Ltd.) and 10% FCS at 37° C. for one hour to obtain a dermis suspension. The dermis suspension was filtered through a 212-μm nylon mesh (Nippon Rikagaku Kikai Co., Ltd.) and the filtrate was centrifuged at 1000 rpm for 5 minutes to obtain pellets containing hair follicle tissue. To the pellets was added calcium/magnesium-free PBS (Dulbecco's Phosphate-Buffered Saline) and the pellets were suspended therein using a pipette. The resulting suspension was allowed to stand for 15 minutes to precipitate hair tissue. The same procedure as above (addition of calcium/magnesium-free PBS, suspending by use of a pipette, and precipitation by allowing suspension to stand for 15 minutes) was repeated three times using the obtained hair tissue.
Then, the hair tissue was treated with a solution containing 0.1% ethylenediaminetetraacetic acid (EDTA) and 0.25% trypsin (Gibco) at 37° C. for 5 minutes. To the resulting mixture was added DMEM containing 10% FCS to prepare a hair tissue cell suspension having a density of 3×10^5 cells/ml. The hair tissue cell suspension was put into wells of a 24-well collagen-coated plate (Iwaki Glass Co., Ltd.) in an amount of 1 ml/well, followed by culturing in 5% CO2 at 37° C. for 24 hours.
After the culturing, the medium was replaced by a medium prepared by adding to MCDB153 medium (Kyokuto Pharmaceutical Ind. Co., Ltd.) DMSO containing 5 mg/l bovine insulin (Sigma Chemical Co., Ltd.); 5 μg/l mouse epidermal growth factor (EGF) (Takara Shuzo Co., Ltd.); 40 mg/l bovine pituitary extract (Kyokuto Pharmaceutical Ind. Co., Ltd.); 10 mg/l human transferrin (Sigma Chemical Co., Ltd.); 0.4 mg/l hydrocortisone (Sigma Chemical Co., Ltd.); 0.63 μg/l progesterone (Collaborative Research Co.); 14 mg/l O-phosphoethanolamine (Sigma Chemical Co., Ltd.); 6.1 mg/l ethanolamine (Sigma Chemical Co., Ltd.); 50 U/ml penicillin (Wako Pure Chemical Industries, Ltd.); 50 μg/ml streptomycin (Wako Pure Chemical Industries, Ltd.); monooleoyl lysophosphatidic acid, dioleoyl phosphatidic acid (Sigma Chemical Co., Ltd.), didecanoyl phosphatidic acid (Sigma Chemical Co., Ltd.), dimyristoyl phosphatidic acid (Funakoshi Co., Ltd.), dipalmitoyl phosphatidic acid (Wako Pure Chemical Industries, Ltd.), dilauroyl phosphatidic acid (Funakoshi Co., Ltd.) or egg yolk-derived phosphatidic acid (Sigma Chemical Co., Ltd.); and/or proanthocyanidin, a protein kinase C-specific inhibitor or tocopherol (added in an amount of 1/100 by volume), followed by further culturing in 5% CO2 at 37° C. for 5 days. During the culturing, the medium was replaced with a fresh one every other day.
As a control, the cells were cultured in the same medium as above except that DMSO alone was added in an amount of 1/100 by volume in place of DMSO containing lysophosphatidic acid or phosphatidic acid, and/or proanthocyanidin, a protein kinase C-specific inhibitor or tocopherol.
The degree of cell growth was measured according to the method using MTT [3-(4,5-dimethylthiazol-2-yl)-2,5-diphenyl tetrazolium bromide] [Experimental Medicine (extra number), Bio Manual UP Series, Experimental Method of Cell Culture for Molecular Biological Studies, p. 89–92, Yodosha (1995)].
To each well of the 24-well microplate (2 cm^2/well) was added a PBS solution of MTT (5 mg/ml) in an amount of 1/10 by volume based on 1 ml of the culture. […]

[2] = Table 2 (1), 3 μmol/l alone, 5 days culture
[3] = Table 2 (2), 10 μmol/l alone, 5 days culture
[4] = Table 2 (1), 30 μmol/l alone, 5 days culture

Polymyxin B
IC50 (protein kinase A (PKA)): > 1000 µM
PKA-IC50/PKC-IC50 (protein kinase C (PKC)): > 384
IC50 (protein kinase C (PKC)): 2.6 µM

CCCCCCCCCC(=O)OCC(COP(=O)(O)O)OC(=O)CCCCCCCCC (stereo not drawn) [Didecanoyl phosphatidic acid, didecanoyl phosphatidic acid]
Relative cell growth rate based on the control as 100 ([1]; Table 2 (2), 1 μmol/l alone): 168

CCCCCCCCCCCCCCCC(=O)OC(CC(=O)[O-])C[N+](C)(C)C (racemic) [Palmitoyl-DL-carnitine]
IC50 (protein kinase A (PKA)): > 1000 µM
PKA-IC50/PKC-IC50 (protein kinase C (PKC)): > 4.3
IC50 (protein kinase C (PKC)): 230 µM

Calphostin C
IC50 (protein kinase A (PKA)): > 50 µM
Relative cell growth rate based on the control as 100 [1, 2]: 180
Relative cell growth rate based on the control as 100 ([1]; Table 2 (2), 0.01 μmol/l alone): 172
PKA-IC50/PKC-IC50 (protein kinase C (PKC); ratio of PKA-IC50 to PKC-IC50): >1000 ∥mol/l
IC50 (protein kinase C (PKC)): 0.05 µM

CCCCCCCCCCCCCC(=O)OCC(COP(=O)(O)O)OC(=O)CCCCCCCCCCCCC (stereo not drawn) [Dimyristoyl phosphatidic acid, dimyristoyl phosphatidic acid]
Relative cell growth rate based on the control as 100 [1, 3]: 361

Cc1c(C)c2c(c(C)c1O)CCC(C)(CCCC(C)CCCC(C)CCCC(C)C)O2 (racemic) [dl-α-Tocopherol]
Relative cell growth rate based on the control as 100 [1, 4]: 150
Relative cell growth rate based on the control as 100 ([1]; Table 2 (2), 30 μmol/l alone): 199

CCCCCCCCCCCC(=O)OC[C@H](COP(=O)(O)O)OC(=O)CCCCCCCCCCC [Dilauroyl phosphatidic acid, dilauroyl phosphatidic acid]
Relative cell growth rate based on the control as 100 [1, 3]: 379

CCCCCCCCCCCCCCCC(=O)OC[C@H](COP(=O)(O)O)OC(=O)CCCCCCCCCCCCCCC [Dipalmitoyl phosphatidic acid, dipalmitoyl phosphatidic acid]
Relative cell growth rate based on the control as 100 ([1]; Table 2 (2), 20 μmol/l alone): 314

Oc1cc(O)c2c(c1)O[C@H](c1ccc(O)c(O)c1)[C@H](O)[C@H]2c1c(O)cc(O)c2c1O[C@H](c1ccc(O)c(O)c1)[C@H](O)C2 [Procyanidin B-2, epicatechin-(4β→8)-epicatechin]
Relative cell growth rate based on the control as 100 [1, 4]: 260
Relative cell growth rate based on the control as 100 [1, 3]: 251

CCCCCCCC/C=C\CCCCCCCC(=O)OC[C@H](COP(=O)(O)O)OC(=O)CCCCCCC/C=C\CCCCCCCC [Dioleoyl phosphatidic acid, dioleoyl phosphatidic acid]
Relative cell growth rate based on the control as 100 [1, 3]: 255

CCCCCCCC/C=C\CCCCCCCC(=O)OC[C@@H](O)COP(=O)(O)O [Monooleoyl lysophosphatidic acid, monooleoyl lysophosphatidic acid]
Relative cell growth rate based on the control as 100 [1, 2]: 200
